The values below come from publication PMC9856044 (Biomolecules, 2023).

The structures appear in SMILES notation.

Data set [1] concerns the target Tel22 (5′-AGGG(TTAGGG)3–3′) G-quadruplex. Briefly: Fluorimetric titration with Tel22 in sodium cacodylate buffer (Na+ solution). Conditions: Tel22, sodium cacodylate buffer, pH = 7.0, I = 0.1 mol dm^−3; SPECFIT fit of fluorescence titration. In kind it is binding, human. The method, then: (§1) Materials. Polynucleotides were purchased as noted: poly A–poly U, calf thymus ctDNA, poly(dAdT)2 and poly(dGdC)2 (Sigma-Aldrich, St. Louis, MI, USA). Polynucleotides were dissolved in Na-cacodylate buffer, I = 0.05 mol dm^−3, pH = 7.0. The calf thymus ctDNA was additionally sonicated and filtered through a […]. Polynucleotide concentration was determined spectroscopically as the concentration of phosphates. Spectrophotometric titrations were performed at pH = 7.0 (I = 0.05 mol dm^−3, sodium cacodylate buffer) by adding aliquots of polynucleotide solution into the solution of the studied compound for fluorimetric experiments and CD experiments were done by adding aliquots of the compound stock solution into the solution of a polynucleotide. In fluorimetric experiments, an excitation wavelength of λexc = 425, 431, 423, 427, 406 and 407 nm, respectively, was used to avoid the inner filter effect caused due to increasing absorbance of the polynucleotide. Emission was collected in the range λem = 400–700 nm. Values for Ka obtained by processing titration data using the Scatchard equation [27], all have satisfactory correlation coefficients (≥0.98).
(§2) Thermal melting curves for DNA, RNA and their complexes with studied compounds were determined as previously described by following the absorption change at 260 nm as a function of temperature. The absorbance of the ligands was subtracted from every curve and the absorbance scale was normalized. Tm values are the midpoints of the transition curves determined from the maximum of the first derivative and checked graphically by the tangent method. The ∆Tm values were calculated by subtracting Tm of the free nucleic acid from Tm of the complex. Every ∆Tm value here reported was the average of two measurements. The error in ∆Tm is ±0.5 °C. 5′-AGGG(TTAGGG)3–3′(Tel22) was obtained from IDT (Integrated DNA Technologies, Coralville, IA, USA). Tel22 was dissolved in 0.1 M either in sodium cacodylate or potassium phosphate buffer. The starting Tel22 oligonucleotide solution was first heated up to 95 °C for 10 min, then slowly cooled to 10 °C at the cooling rate of 1 °C/min to allow DNA oligonucleotide to adopt a G-quadruplex structure. The G-quadruplex structure was confirmed by thermal melting and CD spectra. The concentration of G quadruplex was expressed in terms of oligonucleotide structure. In fluorimetric titrations, aliquots of Tel 22 solution were added to the solution of ligands (c ~ 2 × 10^−7 M, in SI).
(§3) Binding constants (log Ka) and stoichiometry of complexes were calculated from the fluorimetric data using non-linear least-square program SPECFIT [46], in the concentration range that corresponded to 20–80% complex formed.

Data set [2] deals with Tel22 G-quadruplex. Briefly: Thermal melting of Tel22 in sodium cacodylate buffer. The format is binding, human. Conditions: Tel22, r = 1.0, sodium cacodylate buffer, pH = 7.0, I = 0.1 mol dm^−3; error ± 0.5 °C. The method, then: as §2
The subject of a further data set is HeLa cells. Briefly: MTT cytotoxicity assay, HeLa. In kind it is cell-based. Conditions: Homo sapiens, 72 h incubation, ± SD. As for the experimental part: (§4) Human cervical carcinoma HeLa (GIBCO BRL, Invitrogen, Waltham, MA, USA), human melanoma MDA-MB-435S and human ovarian adenocarcinoma SK-OV-3 (ATCC-LGC Standards GmbH, Wesel, Germany) cell lines were purchased from indicated cell culture banks. Normal human skin fibroblasts were isolated from the upper arm of a donor at the Neurochemical Laboratory, Department of Chemistry and Biochemistry, School of Medicine, University of Zagreb. HeLa, MDA-MB-435S and fibroblasts were grown in Dulbecco’s Modified Eagle’s Medium (DMEM; Sigma-Aldrich, St. Louis, MI, USA) while the SK-OV-3 cell line was grown in McCoy’s 5A medium (Capricorn Scientific, Ebsdorfergrund, Germany). All media were supplemented with 10% fetal bovine serum (FBS; Sigma-Aldrich) and 50 I.U./mL penicillin and 50 μg/mL streptomycin. Cells were cultured in a humidified atmosphere of 5% CO2 at 37 °C and were sub-cultured every 3–4 days. HeLa, MDA-MB-435S, SK-OV-3 cells and fibroblasts were seeded in 96 well plates. Twenty-four hours later the cells were treated, in quadruplicate, with different concentrations of compounds (dissolved in DMSO, kept at 4 °C and protected from light). Following 72 h of incubation at 37 °C, the medium was aspired and modified 3-(4,5-dimethylthiazol-2-yl)-2,5-diphenyltetrazolium bromide (MTT) assay was used to determine the cytotoxic effect of the tested compounds. Three hours later, formazan crystals were dissolved in DMSO (0.17 mL/well), the plates were mechanically agitated for 20 min and the optical density at 600 nm was determined on a microtiter plate reader (Awareness Technology Inc., Palm City, FL, USA). The experiments were repeated three times.
A general note: Formazan colour is commonly taken as a measure of viable cells.

For a further data set, the system named is MDA-MB-435S cells. Briefly: MTT cytotoxicity assay, MDA-MB-435S. In kind it is cell-based. Conditions: Homo sapiens, 72 h incubation, ± SD. As for the experimental part:
as §4

Another data set deals with SK-OV-3 cells. In words: MTT cytotoxicity assay, SK-OV-3. In kind it is cell-based. Conditions: Homo sapiens, SK-OV-3, 72 h incubation, ± SD. As for the experimental part:
as §4

The subject of the next data set is Fibroblasts. Briefly: MTT cytotoxicity assay, normal human skin fibroblasts. In kind it is cell-based. Conditions: Fibroblast, 72 h incubation, ± SD. The method, then:
as §4

Data set [3] can be described thus: Solubility and aggregation (UV/Vis characterization). In kind it is physicochemical. Conditions: sodium cacodylate buffer, I = 0.05 mol dm^−3, pH = 7.0; UV/Vis. The method, then: The UV/vis spectra were recorded on a Varian Cary 100 Bio spectrophotometer (Agilent, Santa Clara, CA, USA), CD spectra on JASCO J815 spectrophotometer (ABL&E Handels GmbH, Wien, Austria) and fluorescence spectra on a Varian Cary Eclipse spectrophotometer (Agilent, Santa Clara, CA, USA) at 25 °C using appropriate 1 cm path quartz cuvettes.
Studied compounds, 1–6 were soluble (c = 8 × 10^−4 mol dm^−3) in DMSO. […] Therefore, the stock solution of 2 was prepared fresh before use. The experiments were done in aqueous buffer (sodium cacodylate buffer, I = 0.05 mol dm^−3; pH = 7.0).
However, the shape of UV/Vis spectra of cyanine 2 changed with increasing concentration (calibration experiment in Figure S2 in SI). In addition to the dominant maximum at 432 nm (which most likely corresponds to the monomer form of the dye), the absorption band at 413 nm becomes more intense (Figure S2 in SI). Presumably, it corresponds to the aggregated form (H-aggregate). Based on the existence of an absorption band at 432 nm, only the monomer dye form is visible at high temperature (95 °C) (Figure S8b in SI). However, after cooling the solution to 25 °C, an additional band appears at 413 nm, which corresponds to the aggregated dye form.

In data set [4] the test system is Tel22 (DNA, G4) AGGGTTAGGGTTAGGGTTAGGG
In words: fluorescence titration. Conditions: K+ (potassium phosphate, I = 0.1 M); pH 7.0, 25 °C; emission increase, no constant fitted.

For data set [5] the test system is unchanged. In words: UV thermal melting, 260 nm. Conditions: Na+ (sodium cacodylate, I = 0.1 M); pH 7.0; Tel22 2 µM, r = 1.0 (compound 2 µM).
The test system is the same in data set [6]. In words: fluorescence titration (SPECFIT). Conditions: Na+ (sodium cacodylate, I = 0.1 M); pH 7.0, 25 °C; site 1 of 2.
In data set [7] the target is Tel22 (5′-AGGG(TTAGGG)3–3′) G-quadruplex. In words: Fluorimetric titration with Tel22 in potassium phosphate buffer (K+ solution). The format is binding, human. Conditions: Tel22, K+ solution; no accurate fit possible. As for the experimental part:
as §1, §2, §3

Data set [8] deals with Tel22 G-quadruplex. Briefly: Thermal melting of Tel22 in potassium phosphate buffer. In kind it is binding, human. Conditions: Tel22, r = 1.0, potassium phosphate buffer, pH = 7.0, I = 0.1 mol dm^−3; error ±0.5 °C. As for the experimental part: as §2
The test system of the next data set is ds-DNA and ds-RNA. Briefly: Thermal melting of ds-DNA and ds-RNA. The format is binding. Conditions: r [compound]/[nucleotide phosphate] = 0.1. The method, then: as §2
Binding abilities of 1–6 compounds were further explored by thermal melting experiments. […]

The term IC50 denotes the midpoint of a concentration-inhibition curve. A higher IC50 goes with a need for much substance. In general, melting point refers to the temperature, or range, at which the solid turns liquid. With `C[n+]1c(C=C2Sc3ccccc3N2CCCS(=O)(=O)[O-])[se]c2ccccc21` [Compound 1, 3-(2-((3-methylbenzo[d][1,3]selenazol-3-ium-2-yl)methylene)benzo[d]thiazol-3(2H)-yl)propane-1-sulfonate], the melting point is greater than 300 °C. In [1], the “logKa1 (L + G ⇆ LG)” value is 6.93 ± 0.25 and the “logKa2 (LG + G ⇆ LG2)” value was 5.69 ± 0.23. The “∆Tm” value in the data set on Tel22 G-quadruplex [2] was found to be 0 °C. Besides, the half-maximal inhibitory concentration (IC50) in the data set with HeLa cells is 31.9 ± 1.14 µM. This molecule returned an IC50 in the data set on MDA-MB-435S cells of 18.5 ± 1.23 µM. In the data set with SK-OV-3 cells, this molecule returned a half-maximal inhibitory concentration (IC50) of 32.8 ± 1.09 µM. Moreover, the IC50 in the data set with Fibroblasts was greater than 40 µM. The “Aggregation in aqueous buffer” value in [3] is listed as “do not form aggregates”. Further, in [4], the binding entry is reported as “yes”. The “∆Tm” value in data set [5] was 0 °C. The same molecule registered a logKa1 in [6] of 6.93 ± 0.25.

As for `C[n+]1c(/C=C2\Sc3ccccc3N2CCS)[se]c2ccccc21` [Compound 6, 2-((3-(2-mercaptoethyl)benzo[d]thiazol-2(3H)-ylidene)methyl)-3-methylbenzo[d][1,3]selenazol-3-ium methosulphate], in [7], the “log Ka (indicated by steeper slope of titration curves)” value is listed as no less than 7. The “∆Tm” value in the data set with Tel22 G-quadruplex [2] was found to be 2.0 °C; with Tel22 G-quadruplex [8] it was 6.9 °C. Also, in the data set on ds-DNA and ds-RNA, the “Effect on DNA/RNA thermal stability” value is reported as “did not show any impact”. Moreover, the half-maximal inhibitory concentration (IC50) was 30.7 ± 4.07 µM with HeLa cells, 32.8 ± 3.76 µM in the data set on MDA-MB-435S cells, greater than 40 µM in the data set with SK-OV-3 cells and greater than 40 µM in the data set with Fibroblasts. In data set [3], the “Aggregation in aqueous buffer” value is reported as “significantly aggregate”.
